Values after ≈ are worked out from the molar mass of the structure shown. Blank lines part the entries; values can stand above or below the compound they belong to.
Columns and labels:
Experiment in all cases: ≥ marks a high value that may be exact or a test limit, other limits are often not marked, values filed in µg/mL are converted to µM
[1] = system: Candida albicans 08022821
[2] = system: Candida albicans 08030102
[3] = system: Candida albicans 08030401
[4] = system: Candida albicans 08032815
[5] = system: Candida albicans ATCC 2002
[6] = system: Escherichia coli ATCC 25922
Shigella dysenteriae = system: Shigella dysenteriae
[7] = system: Staphylococcus aureus ATCC 2592
[8] = system: Candida albicans CPCC 400416
[9] = system: Escherichia coli CPCC 100521
[10] = system: Staphylococcus aureus CPCC 100520
Candida albicans C627 = system: Candida albicans C627
[11] = system: Enterococcus faecium mic80
[12] = system: Escherichia coli ESBL 63103
[13] = system: Pseudomonas aeruginosa 213
[14] = system: Pseudomonas aeruginosa H103
[15] = system: Pseudomonas aeruginosa LES400
[16] = system: Staphylococcus aureus ATCC 25923
[17] = system: Staphylococcus aureus C623
[18] = system: Bacillus cereus ATCC 11778
[19] = system: Klebsiella pneumoniae ATCC 700603
[20] = system: Pseudomonas aeruginosa ATCC 27853
[21] = system: Salmonella enterica subsp. enterica serovar Enteritidis ATCC 13076
[22] = system: Serratia marcescens ATCC 21202
[23] = system: Staphylococcus aureus ATCC 29213
[24] = system: Streptococcus pyogenes ATCC 19615
[25] = system: Aspergillus niger ATCC 16404
[26] = system: Candida albicans ATCC 10231
[27] = system: Candida glabrata ATCC 15126
[28] = system: Enterococcus faecalis PCM 2673
[29] = system: Escherichia coli ATCC 23506
[30] = system: Pseudomonas aeruginosa ATCC 9027
[31] = system: Staphylococcus aureus ATCC 9144
[32] = system: Streptococcus pneumoniae ATCC 49619
Escherichia coli HB101 = system: Escherichia coli HB101
[33] = system: Leishmania major MHOM/IL/67/JERICHO-II
[34] = system: Staphylococcus aureus Cowan 1

Structure (SMILES): CC[C@H](C)[C@H](NC(=O)[C@H](CCC(N)=O)NC(=O)[C@H](CCCCN)NC(=O)[C@H](Cc1ccc(O)cc1)NC(=O)[C@H](CC(C)C)NC(=O)[C@H](CCC(N)=O)NC(=O)[C@@H]1CCCN1C(=O)[C@H](CCSC)NC(=O)[C@H](CCCCN)NC(=O)[C@@H](NC(=O)[C@H](CCCN=C(N)N)NC(=O)[C@H](CCCCN)NC(=O)[C@@H](NC(=O)[C@H](CCSC)NC(=O)[C@@H](NC(=O)[C@H](CC(C)C)NC(=O)[C@@H](NC(=O)[C@@H](N)CCCN=C(N)N)[C@@H](C)CC)[C@@H](C)O)[C@@H](C)O)C(C)C)C(=O)N[C@H](C(=O)N[C@H]1CSSC[C@@H](C(=O)O)NC(=O)[C@H]([C@@H](C)O)NC(=O)[C@H](CCCCN)NC(=O)[C@H](Cc2ccccc2)NC(=O)[C@H](CC(C)C)NC(=O)[C@H](CCCN=C(N)N)NC1=O)C(C)C [RILTMTKRVKMPQLYKQIVCRLFKTC]
- MIC [1]: 7.81 µM (≈ 25 µg/mL)
- MIC [2]: 31.3 µM (≈ 99.9 µg/mL)
- MIC [3]: 15.6 µM (≈ 50 µg/mL)
- MIC [4]: ≥ 62.5 µM
- MIC [5]: 3.13 µM (≈ 9.99 µg/mL)
- MIC [6]: 31.3 µM (≈ 99.9 µg/mL)
- MIC (Shigella dysenteriae): 15.6 µM (≈ 50 µg/mL)
- MIC [7]: 15.6 µM (≈ 50 µg/mL)

Structure (SMILES): CC[C@H](C)[C@H](N)C(=O)N[C@H](C(=O)NCC(=O)N1CCC[C@H]1C(=O)N[C@H](C(=O)N[C@@H](CC(C)C)C(=O)NCC(=O)N[C@@H](CC(C)C)C(=O)N[C@H](C(=O)NCC(=O)N[C@@H](CCCCN)C(=O)N[C@@H](C)C(=O)N[C@@H](CC(C)C)C(=O)NCC(=O)NCC(=O)N[C@@H](CC(C)C)C(=O)N[C@@H](CC(C)C)C(N)=O)[C@@H](C)CC)C(C)C)[C@@H](C)CC [IIGPVLGLIGKALGGLL]
- MIC [8]: ≥ 160 µM
- MIC [9]: ≥ 639 µM
- MIC [10]: ≥ 160 µM

Structure (SMILES): CSCC[C@H](NC(=O)[C@H](CO)NC(=O)[C@H](CS)NC(=O)[C@@H](NC(=O)[C@H](CCC(=O)O)NC(=O)[C@H](CC(C)C)NC(=O)[C@H](CC(C)C)NC(=O)[C@@H]1CCCN1C(=O)[C@H](CC(C)C)NC(=O)[C@@H](N)C(C)C)[C@@H](C)O)C(=O)N[C@H](C(=O)N[C@@H](CS)C(=O)N[C@@H](Cc1c[nH]c2ccccc12)C(=O)N[C@@H](CCC(=O)O)C(=O)N[C@@H](CC(N)=O)C(=O)N[C@@H](CC(N)=O)C(=O)N[C@@H](CCC(N)=O)C(=O)N[C@H](C(=O)N[C@@H](Cc1ccccc1)C(=O)NCC(=O)N[C@@H](CCCCN)C(=O)O)[C@@H](C)O)[C@@H](C)O [VLPLLETCSMTCWENNQTFGK]
- MIC [18]: ≥ 41.4 µM
- MIC [6]: > 41.4 µM
- MIC [19]: > 41.4 µM
- MIC [20]: > 41.4 µM
- MIC [21]: ≥ 41.4 µM
- MIC [22]: ≥ 41.4 µM
- MIC [23]: > 41.4 µM
- MIC [24]: ≥ 41.4 µM

Structure (SMILES): CC[C@H](C)[C@H](NC(=O)[C@H](C)NC(=O)[C@H](CCC(=O)O)NC(=O)[C@H](CO)NC(=O)[C@@H](N)Cc1ccccc1)C(=O)N[C@@H](CCCCN)C(=O)N[C@@H](CCCCN)C(=O)N[C@H](C(=O)N[C@H](C(=O)N[C@@H](CC(=O)O)C(=O)N[C@@H](Cc1ccccc1)C(=O)N[C@@H](CC(C)C)C(=O)NCC(N)=O)[C@@H](C)CC)[C@@H](C)CC [FSEAIKKIIDFLG]
- MIC [25]: ≥ 173 µM
- MIC [26]: > 173 µM
- MIC [27]: ≥ 173 µM
- MIC [28]: ≥ 173 µM
- MIC [29]: ≥ 173 µM
- MIC [6]: 173 µM (≈ 256 µg/mL)
- MIC [19]: 86.4 µM (≈ 128 µg/mL)
- MIC [30]: > 173 µM
- MIC [16]: > 173 µM
- MIC [31]: ≥ 173 µM
- MIC [32]: ≥ 173 µM

The next lines start with the values.

- MIC (Candida albicans C627): 5.72 µM (≈ 8 µg/mL)
- MIC [11]: 5.72 µM (≈ 8 µg/mL)
- MIC [12]: 11.4 µM (≈ 16 µg/mL)
- MIC [13]: ≥ 45.7 µM
- MIC [14]: 22.9 µM (≈ 32 µg/mL)
- MIC [15]: 22.9 µM (≈ 32 µg/mL)
- MIC [16]: 11.4 µM (≈ 16 µg/mL)
- MIC [17]: 5.72 µM (≈ 8 µg/mL)
Structure (SMILES): CC(C)C[C@H](NC(=O)[C@H](CC(C)C)NC(=O)[C@H](CCCN=C(N)N)NC(=O)[C@H](Cc1c[nH]c2ccccc12)NC(=O)[C@H](Cc1c[nH]c2ccccc12)NC(=O)[C@H](CCCN=C(N)N)NC(=O)[C@H](CCCCN)NC(=O)[C@H](Cc1c[nH]c2ccccc12)NC(=O)[C@@H](N)CCCN=C(N)N)C(=O)O [RWKRWWRLL]

- MIC (Escherichia coli HB101): ≥ 54 µM
- MIC [33]: ≥ 54.2 µM
- MIC [34]: ≥ 54 µM
Structure (SMILES): CSCC[C@H](NC(=O)[C@@H](NC(=O)[C@H](CCCCN)NC(=O)[C@H](Cc1c[nH]c2ccccc12)NC(=O)[C@H](CC(C)C)NC(=O)[C@H](C)N)[C@@H](C)O)C(=O)N[C@@H](CC(C)C)C(=O)N[C@@H](CCCCN)C(=O)N[C@@H](CCCCN)C(=O)N[C@@H](CC(C)C)C(=O)NCC(=O)N[C@H](C(N)=O)[C@@H](C)O [ALWKTMLKKLGT]

— DBAASP
